From US20200289474A1, “METHODS OF TREATING PAIN WITH A THIAZOLINE ANTI-HYPERALGESIC” (priority 2019, published 2020)
Entries after “also recorded” stand apart in the source; their conditions may differ.

What was measured:
OAT1 = biological target: T1, OAT1 (Homo sapiens, UniProt Q4U2R8); test: transporter inhibition, HEK293 cells, probe accumulation; type: in vitro ADME
T1 construct: expressed in transfected cells; host or cells: HEK293 cells
T1 sequence (Q4U2R8 1-563): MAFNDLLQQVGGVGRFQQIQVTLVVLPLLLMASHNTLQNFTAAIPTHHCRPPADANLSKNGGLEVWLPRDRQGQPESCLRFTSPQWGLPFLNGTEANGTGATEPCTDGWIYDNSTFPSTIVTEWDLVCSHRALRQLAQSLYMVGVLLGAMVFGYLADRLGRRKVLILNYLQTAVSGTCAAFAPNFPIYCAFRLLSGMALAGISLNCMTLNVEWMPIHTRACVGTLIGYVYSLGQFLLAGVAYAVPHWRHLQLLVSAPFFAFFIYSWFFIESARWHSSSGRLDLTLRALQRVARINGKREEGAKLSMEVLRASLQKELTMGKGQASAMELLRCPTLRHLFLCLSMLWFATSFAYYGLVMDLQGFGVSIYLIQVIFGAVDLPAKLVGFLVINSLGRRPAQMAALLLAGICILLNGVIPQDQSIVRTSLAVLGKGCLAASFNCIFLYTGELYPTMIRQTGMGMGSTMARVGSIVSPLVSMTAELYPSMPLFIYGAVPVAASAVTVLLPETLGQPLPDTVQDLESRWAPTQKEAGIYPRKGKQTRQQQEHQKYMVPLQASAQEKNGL

stability in hepatocytes = type: in vitro ADME
Description: Further metabolism work in additional species will be undertaken.

[1] = dog pharmacokinetics, single PO (10 mg/kg) and IV (3 mg/kg) dose; type: in vivo
Protocol: The objective of the first single dose non-GLP study in dogs was to determine the pharmacokinetics and bioavailability of Compound 1 after a single oral (gavage) or single intravenous (IV) dose in dogs. The test article formulation was administered to three male dogs orally via gavage at a dose level of 10 mg/kg (dosing volume of 2 mL/kg body weight). Following a wash-out period of a minimum of three days, the same three dogs were administered the test article formulation via an IV bolus push over approximately 1-2 minutes at a dose level of 3 mg/kg (dosing volume of 0.5 mL/kg). The vehicle for oral gavage dosing was 0.5% HPMC; the vehicle for IV injection was sterile phosphate buffered saline (PBS; pH 7.4). […] Animals were returned to quarantine after the last blood collection.

[2] = rat 28-day GLP repeat dose PO study (toxicokinetics); type: in vivo
Protocol: A 28-day GLP repeat dose study with Compound 1 in rats was conducted with oral gavage doses of 0, 500, 1000 or 2000 mg/kg/day at a dosing volume of 10 mL/kg. The vehicle was 0.5% HPMC. There were 15 rats/sex in the control and high dose groups (5/sex for a 14-day recovery period) while the low and mid doses consisted of 10 rats/sex. Satellite groups of rats/sex/group for toxicokinetics were included.
Rats in Group 1 (Vehicle Control) were bled once at approximately 1 hour post-dose on those days.

[3] = male dogs, 10 mg/kg oral gavage
[4] = female, rat, in vivo, po, 500 mg/kg
[5] = rat 28-day PO, Day 1, F, 1000 mg/kg
[6] = rat 28-day PO, Day 1, F, 2000 mg/kg
[7] = rat 28-day PO, Day 1, M, 500 mg/kg
[8] = rat 28-day PO, Day 1, M, 1000 mg/kg
[9] = rat 28-day PO, Day 1, M, 2000 mg/kg
[10] = rat 28-day PO, Day 14, F, 500 mg/kg
[11] = rat 28-day PO, Day 14, F, 1000 mg/kg
[12] = rat 28-day PO, Day 14, F, 2000 mg/kg
[13] = rat 28-day PO, Day 14, M, 500 mg/kg
[14] = rat 28-day PO, Day 14, M, 1000 mg/kg
[15] = rat 28-day PO, Day 14, M, 2000 mg/kg
[16] = rat 28-day PO, Day 28, F, 500 mg/kg
[17] = rat 28-day PO, Day 28, F, 1000 mg/kg
[18] = rat 28-day PO, Day 28, F, 2000 mg/kg
[19] = rat 28-day PO, Day 28, M, 500 mg/kg
[20] = rat 28-day PO, Day 28, M, 1000 mg/kg
[21] = rat 28-day PO, Day 28, M, 2000 mg/kg

SMILES: CC1(C)SC(Nc2ccccc2O)=N[C@@H]1C(=O)O.Cl [Compound 1, (R)-2-(2-hydroxyphenylamino)-5,5-dimethyl-4,5-dihydrothiazole-4-carboxylic acid mono-hydrochloride]
- inhibition (OAT1): does not inhibit
- stability in hepatocytes (stability in hepatocytes; dog hepatocytes, mono-hydrochloride): stable; also recorded: metabolic stability
- stability in hepatocytes (stability in hepatocytes; human hepatocytes, mono-hydrochloride): stable; also recorded: metabolic stability
- stability in hepatocytes (stability in hepatocytes; monkey hepatocytes): metabolic stability
- stability in hepatocytes (stability in hepatocytes; rat hepatocytes, mono-hydrochloride): stable; also recorded: metabolic stability
- epimerization in vivo (chiral column) ([1]; dog plasma): did not provide any evidence of epimerization
- half-life ([1]; dog, plasma, male dogs, 10 mg/kg oral gavage, read-out: median t1/2 (converted)): 1.4 h
- tmax ([1]; male dogs, 3 mg/kg IV bolus): about 5 minutes
- average oral Cmax [1, 3]: 12 µg/mL
- tmax [1, 3]: about 1 hour
- mean oral bioavailability ([1]; male dogs, 10 mg/kg oral vs 3 mg/kg IV): 72%
- Cmax at 28 days ([2]; both sexes, in vivo, po, rat 28-day pivotal study, at some doses): > 100 µg/mL
- Tmax at 28 days ([2]; both sexes, in vivo, po, rat 28-day study (summary)): ≤ 1 h
- CL/F at 28 days ([2]; both sexes, in vivo, rat 28-day PO, read-out: overall mean CL/F (converted)): 35.2 mL/min/kg
- half-life at 28 days ([2]; both sexes, in vivo, rat 28-day PO, read-out: overall mean t1/2 (converted)): 4.24 h
- half-life ([2]; both sexes, rat, in vivo, po): 3 to 8 h
- overall mean V/F ([2]; both, rat, in vivo, po, 28 days): 12.5 L/kg
- AUC [2, 4]: 298 µg·h/mL
- AUC(0-inf) [2, 4]: 299 µg·h/mL
- CL/F [2, 4]: 27.8 mL/min/kg
- Cmax [2, 4]: 74.8 µg/mL
- Vd/F [2, 4]: 8.1 L/kg
- half-life [2, 4]: 3.36 h
- tmax [2, 4]: 2 h
- half-life ([2]; female, rat, in vivo, po, 2000 mg/kg): 8.05 h
- CL/F ([2]; male, rat, in vivo, po, 1000 mg/kg): 38.7 mL/min/kg
- CL/F ([2]; male, rat, in vivo, po, 2000 mg/kg): 35.3 mL/min/kg
- AUCINF [2, 5]: 794 µg·h/mL
- AUCTAU [2, 5]: 788 µg·h/mL
- CL/F (CLz/F) [2, 5]: 21 mL/min/kg
- Cmax [2, 5]: 108 µg/mL
- t1/2 [2, 5]: 3.39 h
- AUCINF [2, 6]: 1324 µg·h/mL
- AUCTAU [2, 6]: 1161 µg·h/mL
- CL/F (CLz/F) [2, 6]: 25.2 mL/min/kg
- Cmax [2, 6]: 118 µg/mL
- AUCINF [2, 7]: 275 µg·h/mL
- AUCTAU [2, 7]: 270 µg·h/mL
- CL/F (CLz/F) [2, 7]: 30.3 mL/min/kg
- Cmax [2, 7]: 55.1 µg/mL
- t1/2 [2, 7]: 4.18 h
- AUCINF [2, 8]: 460 µg·h/mL
- AUCTAU [2, 8]: 456 µg·h/mL
- CL/F (CLz/F) [2, 8]: 36.2 mL/min/kg
- Cmax [2, 8]: 52.7 µg/mL
- t1/2 [2, 8]: 3.46 h
- AUCINF [2, 9]: 771 µg·h/mL
- AUCTAU [2, 9]: 768 µg·h/mL
- CL/F (CLz/F) [2, 9]: 43.2 mL/min/kg
- Cmax [2, 9]: 83.1 µg/mL
- t1/2 [2, 9]: 2.81 h
- AUCINF [2, 10]: 225 µg·h/mL
- AUCTAU [2, 10]: 223 µg·h/mL
- CL/F (CLss/F) [2, 10]: 37.5 mL/min/kg
- Cmax [2, 10]: 75.0 µg/mL
- t1/2 [2, 10]: 4.20 h
- AUCINF [2, 11]: 437 µg·h/mL
- AUCTAU [2, 11]: 430 µg·h/mL
- CL/F (CLss/F) [2, 11]: 38.7 mL/min/kg
- Cmax [2, 11]: 96.3 µg/mL
- t1/2 [2, 11]: 4.19 h
- AUCINF [2, 12]: 952 µg·h/mL
- AUCTAU [2, 12]: 942 µg·h/mL
- CL/F (CLss/F) [2, 12]: 35.3 mL/min/kg
- Cmax [2, 12]: 127 µg/mL
- t1/2 [2, 12]: 3.56 h
- AUCINF [2, 13]: 258 µg·h/mL
- AUCTAU [2, 13]: 244 µg·h/mL
- CL/F (CLss/F) [2, 13]: 34.2 mL/min/kg
- Cmax [2, 13]: 45.8 µg/mL
- t1/2 [2, 13]: 6.27 h
- AUCINF [2, 14]: 296 µg·h/mL
- AUCTAU [2, 14]: 293 µg·h/mL
- Cmax [2, 14]: 51.9 µg/mL
- t1/2 [2, 14]: 3.68 h
- AUCINF [2, 15]: 709 µg·h/mL
- AUCTAU [2, 15]: 701 µg·h/mL
- Cmax [2, 15]: 75.6 µg/mL
- t1/2 [2, 15]: 3.66 h
- AUCINF [2, 16]: 303 µg·h/mL
- AUCTAU [2, 16]: 297 µg·h/mL
- CL/F (CLss/F) [2, 16]: 28 mL/min/kg
- Cmax [2, 16]: 86.4 µg/mL
- t1/2 [2, 16]: 4.62 h
- tmax [2, 16]: 0.5 h
- AUCINF [2, 17]: 741 µg·h/mL
- AUCTAU [2, 17]: 736 µg·h/mL
- CL/F (CLss/F) [2, 17]: 22.7 mL/min/kg
- Cmax [2, 17]: 128 µg/mL
- t1/2 [2, 17]: 3.20 h
- AUCINF [2, 18]: 1327 µg·h/mL
- AUCTAU [2, 18]: 1305 µg·h/mL
- CL/F (CLss/F) [2, 18]: 25.5 mL/min/kg
- Cmax [2, 18]: 139 µg/mL
- t1/2 [2, 18]: 3.93 h
- tmax [2, 18]: 0.5 h
- AUCINF [2, 19]: 333 µg·h/mL
- AUCTAU [2, 19]: 305 µg·h/mL
- CL/F (CLss/F) [2, 19]: 27.3 mL/min/kg
- Cmax [2, 19]: 48.6 µg/mL
- t1/2 [2, 19]: 6.90 h
- AUCINF [2, 20]: 337 µg·h/mL
- AUCTAU [2, 20]: 334 µg·h/mL
- CL/F (CLss/F) [2, 20]: 49.8 mL/min/kg
- Cmax [2, 20]: 47.9 µg/mL
- t1/2 [2, 20]: 3.31 h
- AUCINF [2, 21]: 731 µg·h/mL
- AUCTAU [2, 21]: 724 µg·h/mL
- CL/F (CLss/F) [2, 21]: 46 mL/min/kg
- Cmax [2, 21]: 83.6 µg/mL
- t1/2 [2, 21]: 3.53 h
